Assay results taken from patent US20260062420A1, “NOVEL DPP1 INHIBITORS AND USES THEREOF” (Insmed Incorporated, priority 2022, published 2026).
Like-named read-outs stand apart in the source and are kept apart here.

Experiments:
[1] = target: Recombinant human DPP1 enzyme (Homo sapiens (Human), UniProt P53634); test: Human DPP1 Enzyme IC50 Assay; type: biochemical; conditions: human DPP1 enzyme; Table 16; read-out: IC50, nM; Human
Procedure: Recombinant human DPP1 enzyme (R&D Systems; Minneapolis, MN) was first proteolytically processed into its mature form using recombinant human cathepsin L (R&D Systems) in a buffer consisting of 20 mM citric acid pH 4.5, 150 mM NaCl, 1 mM EDTA and 10 mM DTT. Test articles were applied to activated human DPP1 enzyme in Assay Buffer (25 mM MES pH 6.0, 50 mM NaCl, 5 mM DTT) in a total reaction volume of 125 μL. 25 μL of compound in Assay Buffer plus 5% DMSO was first added to 50 μL of activated human DPP1 enzyme at a concentration of 1 ng/μL and allowed to pre-incubate for 10 minutes at 37° C. after which 50 μL of 1000 μM H-Gly-Arg-AMC substrate (Bachem; St. Torrance, CA) was added, giving final substrate concentration of 400 μM and a final DMSO concentration of 1%. Substrate cleavage was measured for 90 minutes at 37° C., with fluorescence at Excitation/Emission 350/450 nm measured every 5 minutes. DPP1 concentration was interpolated based on its activity relative to a standard curve of activated human recombinant DPP1 enzyme. IC50 values for each compound were calculated via the XLFit (IDBS Version 5.3.1.3) Add-On to Microsoft Excel using the four parameter fit equation y={A+[(B−A)]/[1+((C/x)^D)]}, which appears as equation number 205 (4 Parameter Logistic Model or Sigmoidal Dose-Response Model) in XLFit. Default constraints were used for each Parameter.

active mouse DPP1 enzyme = active mouse DPP1 enzyme (Mus musculus (Mouse), UniProt P97821); test: Mouse DPP1 Enzyme IC50 Assay; type: biochemical
active mouse DPP1 enzyme, sequence (P97821 25-134): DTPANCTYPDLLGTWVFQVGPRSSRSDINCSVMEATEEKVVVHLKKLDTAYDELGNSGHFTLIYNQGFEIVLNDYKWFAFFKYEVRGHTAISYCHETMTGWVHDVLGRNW
active mouse DPP1 enzyme, sequence (P97821 231-393): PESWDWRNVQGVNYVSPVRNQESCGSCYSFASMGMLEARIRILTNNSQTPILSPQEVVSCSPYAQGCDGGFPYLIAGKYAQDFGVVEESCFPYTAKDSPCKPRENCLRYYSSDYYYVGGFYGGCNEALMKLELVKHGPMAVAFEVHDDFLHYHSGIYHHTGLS
active mouse DPP1 enzyme, sequence (P97821 394-462): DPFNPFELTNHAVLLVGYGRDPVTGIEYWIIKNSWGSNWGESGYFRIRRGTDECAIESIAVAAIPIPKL
Procedure: Test articles were applied to active mouse DPP1 enzyme (R&D Systems; Minneapolis, MN) in Assay Buffer (50 mM MES pH 5.5, 50 mM NaCl, 5 mM DTT) in a total reaction volume of 125 μL. 25 μL of compound in Assay Buffer plus 5% DMSO was first added to 50 μL of active mouse DPP1 enzyme at a concentration of 62.5 pg/μL and allowed to pre-incubate for 10 minutes at 37° C. after which 50 μL of 1000 μM H-Gly-Arg-AMC substrate (Bachem; St. Torrance, CA) was added, giving final substrate concentration of 400 μM and a final DMSO concentration of 1%. Substrate cleavage was measured for 90 minutes at 37° C., with fluorescence at Excitation/Emission 350/450 nm measured every 5 minutes. DPP1 concentration was interpolated based on its activity relative to a standard curve of recombinant active mouse DPP1 enzyme. IC50 values for each compound were calculated via the XLFit (IDBS Version 5.3.1.3) Add-On to Microsoft Excel using the four parameter fit equation y=(A+((B−A)/(1+((C/x)^D)))), which appears as equation number 205 (4 Parameter Logistic Model or Sigmoidal Dose-Response Model) in XLFit. Default constraints were used for each Parameter. IC50 was defined as the compound concentration at which 50% of enzyme activity was inhibited when compared to the no-compound control.

[2] = mouse DPP1 enzyme, Table 16, read-out: IC50, nM, Mouse

Recombinant human DPP1 enzyme, sequence (P53634 25-134): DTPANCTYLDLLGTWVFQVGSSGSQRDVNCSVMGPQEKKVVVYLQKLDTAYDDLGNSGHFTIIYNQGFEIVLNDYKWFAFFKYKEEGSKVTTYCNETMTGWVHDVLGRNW
Recombinant human DPP1 enzyme, sequence (P53634 231-394): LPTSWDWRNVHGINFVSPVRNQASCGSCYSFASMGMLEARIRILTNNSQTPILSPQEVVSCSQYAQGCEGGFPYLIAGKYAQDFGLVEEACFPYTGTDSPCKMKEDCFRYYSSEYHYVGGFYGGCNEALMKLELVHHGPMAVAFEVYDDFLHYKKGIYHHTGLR
Recombinant human DPP1 enzyme, sequence (P53634 395-463): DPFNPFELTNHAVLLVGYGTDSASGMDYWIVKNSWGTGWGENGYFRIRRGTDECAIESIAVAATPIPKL

Structure (SMILES)	IC50 [1] [nM]	IC50 (active mouse DPP1 enzyme; [2]) [nM]	IC50 (active mouse DPP1 enzyme; figure legends FIG. 12 and 13, read-out: IC50, in vitro inhibition of mouse DPP1) [nM]	IC50 (active mouse DPP1 enzyme; mouse DPP1 enzyme, H-Gly-Arg-AMC substrate 400 μM, Table 13, read-out: IC50) [nM]
Cn1c(=O)oc2ccc(-c3ccc(C[C@@H](C#N)NC(=O)CC4COCCN4)cc3)cc21 (some centres unmarked)	> 5000	> 5000		
Cn1c(=O)oc2ccc(-c3ccc(C[C@@H](C#N)NS(N)(=O)=O)cc3)cc21	> 5000	> 5000		
Cn1c(=O)oc2ccc(-c3ccc(C[C@@H](C#N)NC(=O)C4(N)CCS(=O)(=O)C4)cc3)cc21 (some centres unmarked)	> 5000	> 5000		
Cn1c(=O)oc2ccc(-c3ccc(C[C@@H](C#N)NC(=O)C4CS(=O)(=O)CCN4)cc3)cc21 (some centres unmarked)	> 5000	> 5000		
Cn1c(=O)oc2ccc(-c3ccc(C[C@@H](C#N)NC(=O)[C@@H]4CNCCCO4)c(F)c3)cc21		8.1		
N#Cc1ccc(-c2ccc(C[C@@H](C#N)NC(=O)C3CNC3)cc2)cc1	> 5000	4350		
Cn1c(=O)oc2ccc(-c3ccc(C[C@@H](C#N)NC(=O)C4CNC4)s3)cc21	> 5000	4930		
N#Cc1ccc(-c2ccc(C[C@@H](C#N)NC(=O)C3CNC3)s2)cc1	> 5000	> 5000		
[2H]C([2H])([2H])n1c(=O)oc2ccc(-c3ccc(C[C@@H](C#N)NC(=O)C4CNC4)s3)cc21	4940			
Cn1c(=O)oc2ccc(-c3ccc(C[C@@H](C#N)NC(=O)C4CCCCC4)cc3)cc21	> 5000	> 5000		
Cn1c(=O)oc2ccc(-c3ccc(C[C@@H](C#N)NC(=O)[C@H]4C[C@@H]5COC[C@@H]5N4)cc3)cc21	> 5000	> 5000		
N#Cc1ccc(-c2ccc(C[C@@H](C#N)NC(=O)[C@H]3C[C@@H]4COC[C@@H]4N3)cc2)cc1	> 5000	> 5000		
C=C1Oc2ccc(-c3ccc(C[C@@H](C#N)NC(=O)CC4(N)CCCS(=O)(=O)C4)cc3)cc2N1C (some centres unmarked)	> 5000			
Cn1c(=O)oc2ccc(-c3ccc(C[C@@H](C#N)NC(=O)[C@]4(C)CNCCO4)cc3)cc21	> 5000			
Cn1c(=O)oc2ccc(-c3ccc(C[C@@H](C#N)NC(=O)[C@@H]4CNCCCO4)cc3)cc21 [brensocatib, reference compound]			24.3	24.3
Cn1c(=O)oc2ccc(-c3ccc(C[C@@H](C#N)NC(=O)[C@@H]4CNCCCO4)cc3)cc21 [drawing 1149]		27		

Next, values leading:

IC50 [1] [nM]	IC50 (active mouse DPP1 enzyme; [2]) [nM]	IC50 (active mouse DPP1 enzyme; figure legends FIG. 12 and 13, read-out: IC50, in vitro inhibition of mouse DPP1) [nM]	IC50 (active mouse DPP1 enzyme; mouse DPP1 enzyme, H-Gly-Arg-AMC substrate 400 μM, Table 13, read-out: IC50) [nM]	Structure (SMILES)
2610				N#Cc1ccc(-c2ccc(C[C@@H](C#N)NC(=O)C3C[C@@H]4COC[C@@H]4N3)cc2)cc1 (some centres unmarked)
1660				Cn1c(=O)oc2ccc(-c3ccc(CC(C#N)NC(=O)C4CNC4)cc3)cc21 (centres unmarked)
1510				[2H]C([2H])([2H])n1c(=O)oc2ccc(-c3ccc(C[C@@H](C#N)NC(=O)C4CNC4)cc3)cc21
1560	1850			N#Cc1ccc(-c2ccc(C[C@@H](C#N)NC(=O)C3CNC3)c(F)c2)cc1
589	247			Cn1c(=O)oc2ccc(-c3ccc(C[C@@H](C#N)NC(=O)[C@@H]4C[C@@H]5COC[C@@H]5N4)s3)cc21
2270	366			N#Cc1ccc(-c2ccc(C[C@@H](C#N)NC(=O)[C@@H]3C[C@@H]4COC[C@@H]4N3)s2)cc1
664				[2H]C([2H])([2H])n1c(=O)oc2ccc(-c3ccc(C[C@@H](C#N)NC(=O)[C@@H]4C[C@@H]5COC[C@@H]5N4)s3)cc21
526	107			N#Cc1ccc(-c2ccc(C[C@@H](C#N)NC(=O)[C@@H]3C[C@@H]4COC[C@@H]4N3)c(F)c2)cc1
1320				C[C@@H]1NCCC[C@@H]1C(=O)N[C@H](C#N)Cc1ccc(-c2ccc3oc(=O)n(C)c3c2)cc1
4480				C[C@H]1NCCC[C@H]1C(=O)N[C@H](C#N)Cc1ccc(-c2ccc3oc(=O)n(C)c3c2)cc1
1040				Cn1c(=O)oc2ccc(-c3ccc(CC(C#N)NC(=O)[C@@]4(C)CNCCO4)cc3)cc21 (some centres unmarked)
940				Cn1c(=O)oc2ccc(-c3ccc(C[C@@H](C#N)NC(=O)[C@@H]4C[C@@H]5COC[C@@H]5N4)cc3)cc21 [drawing 1156]
1220				Cn1c(=O)oc2ccc(-c3ccc(C[C@@H](C#N)NC(=O)C4CNCC45CCC5)cc3)cc21 (some centres unmarked) [drawing 1229]
